Measured values as given in ChEMBL document CHEMBL1133125, “A sigma-1 receptor selective analogue of BD1008. A potential substitute for (+)-opioids in sigma receptor binding assays” (Bioorg Med Chem Lett, 2000).

Target: Sigma 2 receptor
Assay: Binding affinity against sigma 2 opioid receptor using 3[H]-DTG in the presence of dextrallorphan as radioligand

## CN(CCc1ccc(Cl)c(Cl)c1)CCN1CCCC1
  Ki: 8.1 nM

## O=C(Cc1ccc(Cl)c(Cl)c1)OCCN1CCCC1
  Ki: > 10000 nM
